Measurements: US5665346A, “Human interleukin-8 analogs” (dated 1997)
Where two headings read alike, the source gives them in different places.

Assays:
[1] = tested on: human neutrophils; assay type: cell-based, human neutrophils from donor blood buffy coats; conditions: read-out: Chemotaxis ED50; n = 3
Excerpt: (§1) In a valuable aspect of the present invention, there are provided IL-8 analogs that are antagonists of IL-8 activity. Antagonists of IL-8 activity are characterized by the ability to reduce one or more of the measurable consequences of IL-8-mediated neutrophil stimulation. Biological assays are known which may be used to test for IL-8 activities or an ability to block or inhibit IL-8. The in vitro assays require human neutrophils which may be isolated from donor blood by known procedures such as that described by Peveri, et al (1988) J. Exp. Med. 167: 1547-1559. The assays include measurement of elastase release, cytosolic free calcium changes, and chemotaxis and may be performed according to methods described by Schroder, et al (1987) J. Immunol. 139: 3474-3483; and, Peveri, et al (1988) [supra].
(§2) For the biological assays referred to in the following examples, human neutrophils isolated from buffy coats of donor blood were placed in a final suspension of 10^8 cells/ml kept at 0.15mM MaCl, 0.05 mM CaCl2 at 10° C. until use. Competition binding studies were performed according to the following protocol. IL-8 was iodinated with Enzymobead reagent (Bio-Rad) as instructed by the supplier. Briefly, 1 nmol of IL-8 was mixed with 50 µl of rehydrated Enzymobead reagent, 50 µl of 0.2M potassium phosphate, pH 7.2, 2 mCl or Na^125 I, and […] of 2% D(+)-glucose and incubated for 30 min at 21° C. […] The ^125 I-IL-8 preparations were each analyzed for purity (SDS-polyacrylamide gel electrophoresis) and binding capacity (self-displacement analysis using freshly isolated human neutrophils) prior to use. Neutrophils ([…]) in 120 µl of RPMI 1640 medium containing 20 mM Hepes, pH 7.3, and 10 mg/ml BSA (binding medium) are incubated on ice (0°-4° C.) for 90 min with 1 nM ^125 I-IL-8 in the presence or absence of cold competitor (10^-11 to 10^-5). Cells are separated from unbound radioactivity by centrifugation for 1 min at 8000× g through 350 µl of phosphate-buffered saline (PBS) containing 60 mg/ml BSA (wash medium) in a Hettich Microliter centrifuge model 2020. The supernatant is aspirated, and the bottom of the tubes containing the cell sediment is sliced off and counted in a MR 480 automated µ counter (kontron). The Kd values were determined by calculating nonlinear least squares fits of the measured data, based on a single binding site model, and determining the Kd using a LIGAND program as described by Moser, et al (1991) J. Biol. Chem. 266: 10666-10671.
(§3) Cytokine analogs formed from the monomers described in Table 1 were compared for biological activity according to in vitro assays described herein. […] The binding dissociation constants (Kd values) were calculated from the competitive binding data shown in FIGS. 5 and 6 as described above.
FIG. 2 is a graph showing neutrophil chemotaxis activity of NH2 -terminal deletion IL-8 analogs. The chemotaxis index (stimulated migration/control random migration) was determined at the indicated concentrations of IL-8 1-72: .oval-solid., 1-72; .tangle-solidup., 3-72; .increment., 4-72; .diamond., 5-72; .box-solid., 6-72; .quadrature., 7-72; and .smallcircle., 77-residue IL-8. Unidirectional error bars indicate the standard deviations. Data are representative of three assays using different neutrophil preparations.
(§4) FIG. 4 is a graph showing neutrophil chemotaxis activity of the COOH-terminal deletion IL-8 analogs. The chemotactic index (stimulated migrations/control random migration) was determined at the indicated concentrations of IL-8 1-72: .oval-solid., 1-72; .smallcircle., 1-69; .tangle-solidup., 1-66; .increment., 1-63; .box-solid., 1-60; .quadrature., 1-58; .diamond., 1-54; and X, 1-51. Unidirectional error bars indicate the standard deviations. Data are representative of three assays using different neutrophil preparations.

[2] = tested on: human neutrophils; assay type: cell-based, human neutrophils from donor blood buffy coats; conditions: read-out: Elastase ED50; n = 3
Excerpt: as §1, §2, §3
Shown are determinations at the indicated concentrations of IL-8 1-72: .oval-solid., 1-72; .tangle-solidup., 3-72; .increment., 4-72; .diamond., 5-72; .box-solid., 6-72; .quadrature., 7-72; and .smallcircle., 77-residue IL-8. Unidirectional error bars indicate the standard deviations. Data are representative of three assays using different neutrophil preparations.
as §4, with “FIG. 3” for “FIG. 4”, “neutrophil elastase release” for “neutrophil chemotaxis”, “of” for “of the”, “analogs. Shown are determinations” for “analogs. The chemotactic index (stimulated migrations/control random migration) was determined”

[3] = biological target: human neutrophils (receptor sites for IL-8 on neutrophils) (human); test: competition with 125I-IL-8 on human neutrophils
[4] = biological target: human neutrophils (receptor sites for IL-8 on neutrophils) (human); test: competition with 125I-IL-8 1-72 on human neutrophils, LIGAND fit
[5] = tested on: human neutrophils; assay type: cell-based, human neutrophils from donor blood buffy coats; conditions: read-out: Binding Kd
Description: For the biological assays referred to in the following examples, human neutrophils isolated from buffy coats of donor blood were placed in a final suspension of 10^8 cells/ml kept at 0.15mM MaCl, 0.05 mM CaCl2 at 10° C. until use. Competition binding studies were performed according to the following protocol. […] C. […] Cells are separated from unbound radioactivity by centrifugation for 1 min at 8000× g through 350 µl of phosphate-buffered saline (PBS) containing 60 mg/ml BSA (wash medium) in a Hettich Microliter centrifuge model 2020. The supernatant is aspirated, and the bottom of the tubes containing the cell sediment is sliced off and counted in a MR 480 automated µ counter (kontron). The Kd values were determined by calculating nonlinear least squares fits of the measured data, based on a single binding site model, and determining the Kd using a LIGAND program as described by Moser, et al (1991) J. Biol. Chem. 266: 10666-10671.
as §3

[6] = tested on: human neutrophils; assay type: cell-based, human neutrophils from donor blood buffy coats; conditions: read-out: IC50 (µM)
Description: Analog cytokines having residues 5-72; 6-72; and 7-72; respectively, were synthesized according to the method described herein. […] The assay was performed as previously described and elastase release is expressed in relative fluorescence units (1 unit=1 pMol 7-amino-4-methylcoumarine produced min). Mean values were determined from duplicate determinations form one out of three similar experiments performed with different neutrophil preparations.
(§5) The effect of amino acid replacement on the activity of interleukin-8 analogues was also explored, using compounds prepared by t-boc-based solid phase peptide synthesis.

[7] = tested on: human neutrophils; assay type: cell-based, human neutrophils from donor blood buffy coats
Description: For the biological assays referred to in the following examples, human neutrophils isolated from buffy coats of donor blood were placed in a final suspension of 10^8 cells/ml kept at 0.15mM MaCl, 0.05 mM CaCl2 at 10° C. until use. Competition binding studies were performed according to the following protocol. […] C. […] The supernatant is aspirated, and the bottom of the tubes containing the cell sediment is sliced off and counted in a MR 480 automated µ counter (kontron).
as §5

| EC50 [1] [nM] | EC50 [2] [nM] | Kd [3] [nM] | Molecule | Kd [7] [nM] | other results |
| --- | --- | --- | --- | --- | --- |
| 0.14 | 7.5 |  | IL-8 residues 1-69 |  |  |
|  |  | 170 | IL-8, ELNle (7-72) (ligand) |  |  |
| 3.9 | 220 |  | IL-8 residues 1-60 |  |  |
|  |  | 0.22 | IL-8 (4-72) (ligand) |  | Kd [4]: 0.22 nM |
| 8.9 | 680 |  | IL-8 residues 1-58 |  |  |
| 6.7 | 580 |  | IL-8 residues 1-54 |  | Kd [5]: 10 nM |
|  |  | 16 | IL-8, IR (7-72) (ligand) |  |  |
| 0.36 | 13 |  | IL-8 (1-72), SEQ ID NO: 1, Ser-Ala-Lys-Glu-Leu-Arg-Cys-Gln-Cys... [reference compound] |  |  |
|  |  | 7.9 | IL-8, AAR (7-72) (ligand) |  |  |
|  |  | 0.8 | IL-8 (5-72) (ligand) |  | Kd [4]: 0.76 nM |
|  |  |  | SEQ ID NO: 11, Gln-Arg-Cys-Gln-Cys... [IL-8, QR (7-72)] | 34 | IC50 [6]: 2.1 µM |
| 0.21 | 2.5 |  | IL-8 residues 3-72 |  |  |
| 0.25 | 4.5 |  | IL-8 (4-72), SEQ ID NO: 2, Glu-Leu-Arg-Cys-Gln-Cys... | 0.22 | Kd [5]: 0.22 nM |
|  |  |  | SEQ ID NO: 3, Glu-Leu-Gln-Cys-Gln-Cys... [IL-8, ELQ (7-72)] | 650 | IC50 [6]: 1.1 µM |
| 7.1 | 680 |  | IL-8 residues 1-51 |  | Kd [5]: 17 nM |
|  |  |  | IL-8 (6-72), SEQ ID NO: 12, Arg-Cys-Gln-Cys... | 50 | IC50 [6]: 0.3 µM; Kd [5]: 31 nM |
|  |  |  | SEQ ID NO: 7, Glu-Leu-Nle-Cys-Gln-Cys... (Nle = norleucine) [IL-8, ELNle (7-72)] | 170 | IC50 [6]: 1 µM |
|  |  |  | IL-8 (7-72), SEQ ID NO: 13, Cys-Gln-Cys... | > 10000 |  |

| EC50 [1] [nM] | EC50 [2] [nM] | Kd [3] [nM] | Molecule | Kd [7] [nM] | other results |
| --- | --- | --- | --- | --- | --- |
|  |  | 220 | IL-8, ELK (7-72) (ligand) |  |  |
|  |  |  | SEQ ID NO: 8, Ala-Ala-Arg-Cys-Gln-Cys... [IL-8, AAR (7-72)] | 7.9 | IC50 [6]: 0.3 µM |
|  |  | 1290 | IL-8, ELL (7-72) (ligand) |  |  |
|  |  |  | SEQ ID NO: 5, Glu-Leu-Lys-Cys-Gln-Cys... [IL-8, ELK (7-72)] | 220 | IC50 [6]: 1.8 µM |
|  |  | 34 | IL-8, QR (7-72) (ligand) |  |  |
|  |  | > 10000 | IL-8 (7-72) (ligand) |  |  |
| 1.7 | 150 |  | IL-8 residues 1-63 |  |  |
| 0.32 | 13 |  | IL-8 residues 1-66 |  |  |
|  |  | 50 | IL-8 (6-72) (ligand) |  | Kd [4]: 31 nM |
|  |  | 400 | IL-8, ELOrn (7-72) (ligand) |  |  |
| 0.69 | 25 |  | IL-8 with 5 additional NH2-terminal residues [77-residue IL-8] |  | Kd [5]: 0.35 nM |
|  |  |  | SEQ ID NO: 10, Ile-Arg-Cys-Gln-Cys... [IL-8, IR (7-72)] | 16 | IC50 [6]: 0.3 µM |
|  |  |  | 77-residue IL-8 (ligand) |  | Kd [4]: 0.35 nM |
| 0.48 | 1000 |  | IL-8 (5-72), SEQ ID NO: 9, Leu-Arg-Cys-Gln-Cys... | 0.8 | Kd [5]: 0.76 nM |
|  |  |  | SEQ ID NO: 4, Glu-Leu-Leu-Cys-Gln-Cys... [IL-8, ELL (7-72)] | 1290 | IC50 [6]: 0.7 µM |
|  |  | 650 | IL-8, ELQ (7-72) (ligand) |  |  |
|  |  |  | IL-8 1-54 (ligand) SAKELRCQCIKTYSKPFHPKFIKELRVIESGPHCANTEIIVKLSDGRELCLDPK |  | Kd [4]: 10 nM |
|  |  |  | IL-8 1-51 (ligand) SAKELRCQCIKTYSKPFHPKFIKELRVIESGPHCANTEIIVKLSDGRELCL |  | Kd [4]: 17 nM |
